Counter-ions that a name gives are not always drawn.
Experiments:
[1] = molecular target: T1, CCR5 (Homo sapiens, UniProt P51681); test: CCR5-Mediated CCF Assay; format: cell-based; conditions: Hela-R5 cells (gp160) co-cultured 24 hrs with CEM-NKr-CCR5-Luc cells, luciferase readout
T1 construct: host or cells: CEM-NKr-CCR5-Luc
Protocol: CCF assay was performed as described before (C. Ji, J. Zhang, N. Cammack and S. Sankuratri 2006 J. Biomol. Screen. in press). Hela-R5 cells (express gp160 from R5-tropic virus and HIV-1 T at) were plated in 384 well white culture plates (BD Bioscience, Palo Alto, Calif.) at 7.5×10^3 cells per well in phenol red-free Dulbecco's Modified Eagle Medium (DMEM) supplemented with 10% FBS, 1× Pen-Strep, 300 μg/ml G418, 100 μg/ml hygromycin, and 1 μg/ml doxycycline (Dox) (BD Bioscience, Palo Alto, Calif.), using Multimek (Beckman, Fullerton, Calif.) and incubated at 37° C. overnight to induce the expression of gp160. Ten μl diluted compounds in medium containing 5% DMSO were added to the cells, followed by the addition of CEM-NKr-CCR5-Luc (obtained from NIH AIDS Research & Reference Reagents Program) that expresses CD4 and CCR5 and carries a HIV-2 long terminal repeat (LTR)-driven luciferase reporter gene at 1.5×10^4 cells/15 μl/well and incubated for 24 hrs. At the end of co-culture, 15 μl of Steady-Glo luciferase substrate was added into each well, and the cultures were sealed and gently shaken for 45 min. The luciferase activity were measured for 10 sec per well as luminescence by using 16-channel TopCount NXT (PerkinElmer, Shelton, Conn.) with 10 min dark adaptation and the readout is count per second (CPS). For the drug interaction experiments, small molecule compounds or antibodies were serially diluted in serum-free and phenol red-free RPMI containing 5% dimethyl sulfoxide (DMSO) (CalBiochem, La Jolla, Calif.) and 1× Pen-Strep. Five μl each of the two diluted compound or mAb to be tested for drug-drug interactions were added to the Hela-R5 cells right before the addition of target cells.

T1 sequence (P51681 whole entry): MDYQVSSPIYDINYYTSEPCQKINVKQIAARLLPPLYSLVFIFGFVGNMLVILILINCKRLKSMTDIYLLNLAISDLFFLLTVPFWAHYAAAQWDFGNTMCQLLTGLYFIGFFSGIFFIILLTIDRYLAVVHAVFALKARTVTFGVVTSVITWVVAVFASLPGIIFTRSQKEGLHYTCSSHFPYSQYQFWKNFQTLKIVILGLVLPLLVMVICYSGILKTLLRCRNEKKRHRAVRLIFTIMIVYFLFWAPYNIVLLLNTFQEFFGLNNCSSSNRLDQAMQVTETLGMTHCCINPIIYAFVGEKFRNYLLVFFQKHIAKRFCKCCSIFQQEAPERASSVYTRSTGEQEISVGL

Structure (SMILES) | IC50 [1] [nM] | melting point [°C]
Cc1nc(NS(C)(=O)=O)nc(C)c1C(=O)N1CC2CN(CC[C@H](NC(=O)C3CCCC3)c3ccccc3)CC2C1 (stereo partly drawn) [Compound I-42, Cyclopentanecarboxylic Acid {(S)-3-[5-(2-methanesulfonylamino-4,6-dimethyl-pyrimidine-5-carbonyl)-hexahydro-pyrrolo[3,4-c]pyrrol-2-yl]-1-phenyl-propyl}-amide] | < 0.3 | –
Cc1nc(Oc2ccc(C(=O)OCc3ccccc3)cc2)nc(C)c1C(=O)N1CC2CN(CC[C@H](NC(=O)C3CCCC3)c3ccccc3)CC2C1 (stereo partly drawn) [Compound I-7, 4-(5-{5-[(S)-3-(Cyclopentanecarbonyl-amino)-3-phenyl-propyl]-hexahydro-pyrrolo[3,4-c]pyrrole-2-carbonyl}-4,6-dimethyl-pyrimidin-2-yloxy)-benzoic acid benzyl ester] | < 0.3 | –
Cc1nc(Oc2cccc(C(=O)O)c2)nc(C)c1C(=O)N1CC2CN(CC[C@H](NC(=O)C3CCCC3)c3ccccc3)CC2C1 (stereo partly drawn) [Compound I-10, 3-(5-{5-[(S)-3-(cyclopentanecarbonyl-amino)-3-phenyl-propyl]-hexahydro-pyrrolo[3,4-c]pyrrole-2-carbonyl}-4,6-dimethyl-pyrimidin-2-yloxy)-benzoic acid, trifluoro acetic acid salt] | 1.1 | –
Cc1nc(OCC(=O)OCc2ccccc2)nc(C)c1C(=O)N1CC2CN(CC[C@H](NC(=O)C3CCCC3)c3ccccc3)CC2C1 (stereo partly drawn) [Compound I-3, (5-{5-[(S)-3-(Cyclopentanecarbonyl-amino)-3-phenyl-propyl]-hexahydro-pyrrolo[3,4-c]pyrrole-2-carbonyl}-4,6-dimethyl-pyrimidin-2-yloxy)-acetic Acid Benzyl Ester] | 0.5 | –
Cc1cc(=O)n(C)c(C)c1C(=O)N1CC2CN(CC[C@H](NC(=O)C3CCC(F)(F)CC3)c3ccccc3)CC2C1 (stereo partly drawn) [III-15, 4,4-difluoro-cyclohexanecarboxylic acid {(S)-1-phenyl-3-[5-(1,2,4-trimethyl-6-oxo-1,6-dihydro-pyridine-3-carbonyl)-hexahydro-pyrrolo[3,4-c]pyrrol-2-yl]-propyl}-amide] | 1.1 | –
CCOC(=O)Cn1c(C)c(C(=O)N2CC3CN(CCCN(C(=O)C4CCN(C(C)=O)CC4)c4ccc(C)c(Cl)c4)CC3C2)c(C)cc1=O (stereo not drawn) [III-1, [5-(5-{3-[(1-Acetyl-piperidine-4-carbonyl)-(3-chloro-4-methyl-phenyl)-amino]-propyl}-hexahydro-pyrrolo[3,4-c]pyrrole-2-carbonyl)-4,6-dimethyl-2-oxo-2H-pyridin-1-yl]-acetic acid ethyl ester] | – | 88.2 to 89.1

The next lines start with the values.

IC50 [1] [nM] | melting point [°C] | Structure (SMILES)
0.9 | – | Cc1nc(Oc2ccc(C(=O)O)cc2)nc(C)c1C(=O)N1CC2CN(CC[C@H](NC(=O)C3CCCC3)c3ccccc3)CC2C1 (stereo partly drawn) [Compound I-8, 4-(5-{5-[(S)-3-(cyclopentanecarbonyl-amino)-3-phenyl-propyl]-hexahydro-pyrrolo[3,4-c]pyrrole-2-carbonyl}-4,6-dimethyl-pyrimidin-2-yloxy)-benzoic acid trifluoro-acetate salt]
< 0.3 | – | CCOC(=O)c1cccc(Oc2nc(C)c(C(=O)N3CC4CN(CC[C@H](NC(=O)C5CCCC5)c5ccccc5)CC4C3)c(C)n2)c1 (stereo partly drawn) [Compound I-9, 3-(5-{5-[(S)-3-(Cyclopentanecarbonyl-amino)-3-phenyl-propyl]-hexahydro-pyrrolo[3,4-c]pyrrole-2-carbonyl}-4,6-dimethyl-pyrimidin-2-yloxy)-benzoic acid ethyl ester]
1 | – | COC(=O)[C@@H](Oc1nc(C)c(C(=O)N2CC3CN(CC[C@H](NC(=O)C4CCCC4)c4ccccc4)CC3C2)c(C)n1)c1ccccc1 (stereo partly drawn) [Compound I-16, (S)-(5-{-5-[(S)-3-(Cyclopentanecarbonyl-amino)-3-phenyl-propyl]-hexahydro-pyrrolo[3,4-c]pyrrole-2-carbonyl}-4,6-dimethyl-pyrimidin-2-yloxy)-phenyl-acetic acid methyl ester]
1.4 | – | Cc1cc(=O)n(C)c(C)c1C(=O)N1CC2CN(CC[C@H](NC(=O)C3CCCC3)c3ccccc3)CC2C1 (stereo partly drawn) [III-13, Cyclopentanecarboxylic acid {(S)-1-phenyl-3-[-5-(1,2,4-trimethyl-6-oxo-1,6-dihydro-pyridine-3-carbonyl)-hexahydro-pyrrolo[3,4-c]pyrrol-2-yl]-propyl}-amide]
0.4 | – | COc1nc(C)c(C(=O)N2CC3CN(CC[C@H](NC(=O)C4CCCC4)c4ccccc4)CC3C2)c(C)n1 (stereo partly drawn) [Compound I-19, Cyclopentanecarboxylic Acid {(S)-3-[5-(2-methoxy-4,6-dimethyl-pyrimidine-5-carbonyl)-hexahydro-pyrrolo[3,4-c]pyrrol-2-yl]-1-phenyl-propyl}-amide]
< 0.3 | – | Cc1nn(-c2ccc(C(F)(F)F)cn2)c(C)c1C(=O)N1CC2CN(CC[C@H](NC(=O)C3CCOC3)c3cccc(F)c3)CC2C1 (stereo partly drawn) [II-3, Tetrahydro-furan-3-carboxylic acid [(S)-3-{5-[3,5-dimethyl-1-(5-trifluoromethyl-pyridin-2-yl)-1H-pyrazole-4-carbonyl]-hexahydro-pyrrolo[3,4-c]pyrrol-2-yl}-1-(3-fluoro-phenyl)-propyl]-amide]

Reference: patent publication US20070191335A1, “Heterocylic antiviral compounds” (priority 2006, published 2007)
